Usually mass density stands for mass per unit of volume. In general, speed of sound refers to how fast a sound wave travels through the sample.

± gives the expanded uncertainty stated by the source.

The results in this text go back to the NIST ThermoML archive (doi:10.1016/j.jct.2007.10.007).

A short description of this series: mn = molality of the nth substance listed, in mol/kg. The conditions noted are these: 298.15 K, 101 kPa, Liquid.

Turning to `CCCCn1cc[n+](C)c1.[Cl-]` [1-butyl-3-methylimidazolium chloride] + O, the mass density runs as follows: (m1 = 0.05281) 997.72 ± 0.51 kg/m3; (m1 = 0.09783) 998.29 ± 0.51 kg/m3; (m1 = 0.1433) 998.85 ± 0.51 kg/m3; (m1 = 0.1998) 999.56 ± 0.5 kg/m3; (m1 = 0.2471) 1000.15 ± 0.5 kg/m3; (m1 = 0.2899) 1000.69 ± 0.51 kg/m3. Besides, the mass density runs as follows: (m1 = 0.3173) 1001.04 ± 0.51 kg/m3; (m1 = 0.4052) 1002.14 ± 0.52 kg/m3; (m1 = 0.422) 1002.35 ± 0.52 kg/m3; (m1 = 0.4995) 1003.31 ± 0.52 kg/m3. Further, the speed of sound is, setting by setting: (m1 = 0.05281) 1504.8 ± 1.5 m/s; (m1 = 0.09783) 1510.5 ± 1.5 m/s; (m1 = 0.1433) 1516.7 ± 1.5 m/s; (m1 = 0.1998) 1524.4 ± 1.5 m/s; (m1 = 0.2471) 1530.2 ± 1.5 m/s; (m1 = 0.2899) 1535.5 ± 1.5 m/s. Also, the speed of sound (m1 = 0.3173) is recorded as 1539.1 ± 1.5 m/s, the speed of sound (m1 = 0.4052) is on record as 1549.9 ± 1.5 m/s, the speed of sound (m1 = 0.422) worked out at 1551.9 ± 1.5 m/s and the speed of sound (m1 = 0.4995) worked out at 1562.2 ± 1.5 m/s.

On to `Cl.Cn1ccnc1` [1-methylimidazolium chloride] + O, for which the mass density (m1 = 0.05234) stood at 998.29 ± 0.51 kg/m3; the mass density (m1 = 0.09548) was 999.3 ± 0.51 kg/m3; the mass density (m1 = 0.147) turned out to be 1000.49 ± 0.5 kg/m3; the mass density (m1 = 0.1998) is 1001.69 ± 0.51 kg/m3; the mass density (m1 = 0.2472) was 1002.77 ± 0.52 kg/m3; the mass density (m1 = 0.3011) was determined as 1003.97 ± 0.53 kg/m3. For the same molecule, the mass density came out at 1005.18 ± 0.54 kg/m3 (m1 = 0.3555), 1006.13 ± 0.54 kg/m3 (m1 = 0.3994), 1007.35 ± 0.55 kg/m3 (m1 = 0.4551) and 1008.62 ± 0.56 kg/m3 (m1 = 0.5139). In addition, the speed of sound reads like this: (m1 = 0.05234) 1501.6 ± 1.5 m/s; (m1 = 0.09548) 1504.7 ± 1.5 m/s; (m1 = 0.147) 1508.5 ± 1.5 m/s; (m1 = 0.1998) 1512.5 ± 1.5 m/s; (m1 = 0.2472) 1516 ± 1.5 m/s; (m1 = 0.3011) 1519.9 ± 1.5 m/s. Besides, the speed of sound by setting is: (m1 = 0.3555) 1523.9 ± 1.5 m/s; (m1 = 0.3994) 1526.3 ± 1.5 m/s; (m1 = 0.4551) 1530.5 ± 1.5 m/s; (m1 = 0.5139) 1534.6 ± 1.5 m/s.

Turning to `Cl.c1c[nH]cn1` [imidazolium chloride] + O, the mass density was 998.24 ± 0.51 kg/m3 (m1 = 0.04296); 999.89 ± 0.5 kg/m3 (m1 = 0.1027); 1001.26 ± 0.51 kg/m3 (m1 = 0.153); 1002.47 ± 0.52 kg/m3 (m1 = 0.1976); 1003.72 ± 0.53 kg/m3 (m1 = 0.2417); 1004.65 ± 0.53 kg/m3 (m1 = 0.2914). Further, the mass density reads like this: (m1 = 0.34) 1006.45 ± 0.55 kg/m3; (m1 = 0.3893) 1007.62 ± 0.55 kg/m3; (m1 = 0.4495) 1008.96 ± 0.56 kg/m3; (m1 = 0.5003) 1010.31 ± 0.57 kg/m3. Besides, the speed of sound came out at 1500.1 ± 1.5 m/s (m1 = 0.04296); 1503.8 ± 1.5 m/s (m1 = 0.1027); 1507 ± 1.5 m/s (m1 = 0.153); 1509.7 ± 1.5 m/s (m1 = 0.1976); 1512.4 ± 1.5 m/s (m1 = 0.2417); 1515.8 ± 1.5 m/s (m1 = 0.2914). Also, the speed of sound is 1517.9 ± 1.5 m/s (m1 = 0.34), 1521.2 ± 1.5 m/s (m1 = 0.3893), 1525.2 ± 1.5 m/s (m1 = 0.4495) and 1527.9 ± 1.5 m/s (m1 = 0.5003).

On to `O` [water] + CCCCn1cc[n+](C)c1.[Cl-], for which the speed of sound (m2 = 0) is reported as 1497.6 ± 1.5 m/s.

As for `O` [water] + Cl.Cn1ccnc1, the speed of sound (m2 = 0) came to 1497.6 ± 1.5 m/s.

Regarding `O` [water] + Cl.c1c[nH]cn1, for the setting “m2 = 0”, the speed of sound was found to be 1497.6 ± 1.5 m/s.
